tested on: SARS CoV-2 (USA_WA1/2020)

SMILES	rescue of SARS-CoV-2 CPE (in words)
CCN1CCN(Cc2ccc(Nc3ncc(F)c(-c4cc(F)c5nc(C)n(C(C)C)c5c4)n3)nc2)CC1 [abemaciclib]	protected against SARS-CoV-2 induced CPE, but to lesser degrees than cepharanthine
CC1=C[C@]23C(=O)[C@@H](C=C(CO)[C@@H](O)[C@]2(O)[C@H]1O)[C@H]1[C@@H](C[C@H]3C)C1(C)C [ingenol]	protected against SARS-CoV-2 induced CPE, but to lesser degrees than cepharanthine
C=CC(=O)Nc1cc(Nc2nccc(-c3cn(C)c4ccccc34)n2)c(OC)cc1N(C)CCN(C)C [osimertinib]	protected against SARS-CoV-2 induced CPE, but to lesser degrees than cepharanthine
CC(CN(C)C)CN1c2ccccc2CCc2ccccc21 (stereo not shown) [trimipramine]	protected against SARS-CoV-2 induced CPE, but to lesser degrees than cepharanthine

Reference: article PMC7586456 (ACS Pharmacology & Translational Science, 2020)
